One data set relates to CD1 mice. In kind it is in vivo, mouse. The note with it: for Percent Surviving: CD1 mice, survival recorded for 24 hrs.
Another data set relates to CD3+ human PBMCs. Briefly: Radiation-induced apoptosis. In kind it is cell-based. The conditions noted are these: CD3+ human PBMCs exposed to 20 Gy radiation, Figure 1.
In the next data set the test system is C57Bl/6J mice. The data set is classed as in vivo, mouse. The conditions noted are these: 2 mg in 200 μL saline via tail-vein injection, N=6.
For the next data set, the system named is male C57Bl/6 mice. Briefly: Post-exposure treatment after lethal total body irradiation. The data set is classed as in vivo, mouse. The note with it: 1 mg dose, data not shown.
Data set [1] deals with primary human lymphocytes (PBMCs). Nature of the data set: Cellular uptake and subcellular distribution of FITC-labeled peptides. The data set is classed as cell-based. The note with it: 5 μM fluorescein-labeled peptide, 1 h, RPMI with 10% FBS or serum-free PBS.

Like-named read-outs stand apart in the source and are kept apart here.

For the substance “(d) ^1-Ac-RKKRR-Orn-RRR-COOH [TAT, reference compound]”, the results for the “Percent Surviving” value with CD1 mice (2 mg i.p.) and in the data set on CD1 mice (5 mg i.p.) were 100% and 0%, respectively.
Consider “(d) ^1-Ac-RKKRR-Orn-RRR-β-A-(l) ^1-SNRELVVDFLSDKLSQKGDS-COOH [TAT-BH4i]”, for which the “Effect on radiation-induced apoptosis, in words” value with CD3+ human PBMCs is on record as “Neither TAT-BH4i nor NLS-BH4i had any appreciable effect”.
As for “(d) ^1-Ac-RKKRR-Orn-RRR-β-A-(l) ^1-SNRELVVDFLSYKLSQKGYS-COOH [TAT-BH4]”, in the data set on C57Bl/6J mice, the “Time to death following injection” value is 3 to 5 min. The “Appearance of mice the following day” value in the data set on CD1 mice (2 mg i.p.) is on record as “appeared normal”. The “Percent Surviving” value in the data set with CD1 mice (2 mg i.p.) amounted to 100%; in the data set with CD1 mice (5 mg i.p.), 75%; in the data set on CD1 mice (20 mg i.p.), 25%. Moreover, in the data set on CD1 mice (5 mg or 20 mg i.p., necropsy: distended and edematous bowel, small necrotic foci), the “Appearance of surviving mice the following day” value is “piloerection and distended abdomens”.
As for “Ac-KKKRKV-β-A-(l) ^1-SNRELVVDFLSDKLSQKGDS-COOH [NLS-BH4i]”, the “Effect on radiation-induced apoptosis, in words” value in the data set with CD3+ human PBMCs is “Neither TAT-BH4i nor NLS-BH4i had any appreciable effect”.
For “Ac-KKKRKV-β-A-(l) ^1-SNRELVVDFLSYKLSQKGYS-COOH [NLS-BH4]”, the “Radiation-induced lymphocyte apoptosis in vivo (pilot study)” value in the data set with male C57Bl/6 mice is “significantly attenuated radiation-induced lymphocyte apoptosis”. Further, the “Uptake by PBMCs (fluorescence intensity, flow cytometry)” value in data set [1] is reported as “less dependent on the presence of serum”. Moreover, the “Percent Surviving” value in the data set with CD1 mice (2 mg i.p.), in the data set with CD1 mice (10 mg i.p.) and in the data set with CD1 mice (30 mg i.p.) was 100% each time. For the same substance, the “Tolerability of i.p. injections” value in the data set with CD1 mice (2, 5, or 0 mg i.p., N = 3 mice per group) is recorded as “without any apparent ill effects”.
